Source: the supplement of paper PMC13380429

Columns and labels:
Details in all cases: 72 h
[1] = system: Calu-3; test: relative viability EC50 (midpoint between 100% and the lowest measured viability); higher = less toxic
[2] = system: HepG2; test: as above
[3] = system: Caco-2; test: as above
[4] = system: Vero E6; test: as above
[5] = system: U2OS; test: as above
[6] = system: Calu-3; test: drug sensitivity score (DSS) for viability; higher = more toxic; extreme values may be limits of the assay
[7] = system: HepG2; test: as above
[8] = system: Caco-2; test: as above
[9] = system: Vero E6; test: as above
[10] = system: U2OS; test: as above
[11] = system: Calu-3; test: cell viability relative to DMSO; higher = less toxic
[12] = system: HepG2; test: as above
[13] = system: Caco-2; test: as above
[14] = system: Vero E6; test: as above
[15] = system: U2OS; test: as above

CC(=O)CCCCn1c(=O)c2c(ncn2C)n(C)c1=O [pentoxifylline]
relative viability EC50 [1]: > 10 µM
relative viability EC50 [2]: > 10 µM
relative viability EC50 [3]: > 10 µM
relative viability EC50 [4]: > 10 µM
relative viability EC50 [5]: > 10 µM
drug sensitivity score [6]: 0
drug sensitivity score [7]: 0
drug sensitivity score [8]: 0
drug sensitivity score [9]: 0
drug sensitivity score [10]: 0
cell viability ([11]; 1 nM): 99.7%
cell viability ([11]; 10 nM): 95%
cell viability ([11]; 100 nM): 104%
cell viability ([11]; 1000 nM): 95.8%
cell viability ([11]; 10000 nM): 98.1%
cell viability ([12]; 1 nM): 88.1%
cell viability ([12]; 10 nM): 98.5%
cell viability ([12]; 100 nM): 110%
cell viability ([12]; 1000 nM): 94.3%
cell viability ([12]; 10000 nM): 106%
cell viability ([13]; 1 nM): 98.1%
cell viability ([13]; 10 nM): 115%
cell viability ([13]; 100 nM): 97%
cell viability ([13]; 1000 nM): 114%
cell viability ([13]; 10000 nM): 89.1%
cell viability ([14]; 1 nM): 104%
cell viability ([14]; 10 nM): 110%
cell viability ([14]; 100 nM): 108%
cell viability ([14]; 1000 nM): 108%
cell viability ([14]; 10000 nM): 99.2%
cell viability ([15]; 1 nM): 101%
cell viability ([15]; 10 nM): 96.1%
cell viability ([15]; 100 nM): 102%
cell viability ([15]; 1000 nM): 94.2%
cell viability ([15]; 10000 nM): 100%

COc1ccc2c(c1)[C@]13CCCC[C@@H]1[C@H](C2)N(C)CC3 [dextromethorphan]
relative viability EC50 [1]: > 10 µM
relative viability EC50 [2]: > 10 µM
relative viability EC50 [3]: > 10 µM
relative viability EC50 [4]: > 10 µM
relative viability EC50 [5]: > 10 µM
drug sensitivity score [6]: 0
drug sensitivity score [7]: 0
drug sensitivity score [8]: 0
drug sensitivity score [9]: 0
drug sensitivity score [10]: 0
cell viability ([11]; 1 nM): 95.6%
cell viability ([11]; 10 nM): 106%
cell viability ([11]; 100 nM): 89.6%
cell viability ([11]; 1000 nM): 99.3%
cell viability ([11]; 10000 nM): 102%
cell viability ([12]; 1 nM): 111%
cell viability ([12]; 10 nM): 108%
cell viability ([12]; 100 nM): 95.8%
cell viability ([12]; 1000 nM): 103%
cell viability ([12]; 10000 nM): 109%
cell viability ([13]; 1 nM): 98.1%
cell viability ([13]; 10 nM): 98.9%
cell viability ([13]; 100 nM): 104%
cell viability ([13]; 1000 nM): 97.7%
cell viability ([13]; 10000 nM): 97.7%
cell viability ([14]; 1 nM): 92.1%
cell viability ([14]; 10 nM): 100%
cell viability ([14]; 100 nM): 97.3%
cell viability ([14]; 1000 nM): 95.9%
cell viability ([14]; 10000 nM): 104%
cell viability ([15]; 1 nM): 97.1%
cell viability ([15]; 10 nM): 98.3%
cell viability ([15]; 100 nM): 99.7%
cell viability ([15]; 1000 nM): 95.3%
cell viability ([15]; 10000 nM): 97.1%

Cc1cccc(Oc2nc3c(C)cccn3c(=O)c2/C=C(\C#N)c2nc3ccccc3s2)c1
relative viability EC50 [1]: > 10 µM
relative viability EC50 [2]: > 10 µM
relative viability EC50 [3]: > 10 µM
relative viability EC50 [4]: > 10 µM
relative viability EC50 [5]: > 10 µM
drug sensitivity score [6]: 0
drug sensitivity score [7]: 0
drug sensitivity score [8]: 0
drug sensitivity score [9]: 0
drug sensitivity score [10]: 0
cell viability ([11]; 1 nM): 97%
cell viability ([11]; 10 nM): 94.1%
cell viability ([11]; 100 nM): 98.6%
cell viability ([11]; 1000 nM): 102%
cell viability ([11]; 10000 nM): 112%
cell viability ([12]; 1 nM): 100%
cell viability ([12]; 10 nM): 90.2%
cell viability ([12]; 100 nM): 101%
cell viability ([12]; 1000 nM): 94.6%
cell viability ([12]; 10000 nM): 100%
cell viability ([13]; 1 nM): 93.1%
cell viability ([13]; 10 nM): 98.3%
cell viability ([13]; 100 nM): 98.3%
cell viability ([13]; 1000 nM): 94%
cell viability ([13]; 10000 nM): 98.6%
cell viability ([14]; 1 nM): 103%
cell viability ([14]; 10 nM): 95.5%
cell viability ([14]; 100 nM): 99.4%
cell viability ([14]; 1000 nM): 91.4%
cell viability ([14]; 10000 nM): 106%
cell viability ([15]; 1 nM): 95.2%
cell viability ([15]; 10 nM): 99.1%
cell viability ([15]; 100 nM): 96%
cell viability ([15]; 1000 nM): 102%
cell viability ([15]; 10000 nM): 106%

Nc1ccc(S(=O)(=O)Nc2ccnn2-c2ccccc2)cc1 [sulfaphenazole]
relative viability EC50 [1]: > 10 µM
relative viability EC50 [2]: > 10 µM
relative viability EC50 [3]: > 10 µM
relative viability EC50 [4]: > 10 µM
relative viability EC50 [5]: > 10 µM
drug sensitivity score [6]: 0
drug sensitivity score [7]: 0
drug sensitivity score [8]: 0
drug sensitivity score [9]: 0
drug sensitivity score [10]: 0
cell viability ([11]; 1 nM): 97.2%
cell viability ([11]; 10 nM): 100%
cell viability ([11]; 100 nM): 101%
cell viability ([11]; 1000 nM): 104%
cell viability ([11]; 10000 nM): 97.2%
cell viability ([12]; 1 nM): 102%
cell viability ([12]; 10 nM): 99.5%
cell viability ([12]; 100 nM): 85.5%
cell viability ([12]; 1000 nM): 112%
cell viability ([12]; 10000 nM): 103%
cell viability ([13]; 1 nM): 97.5%
cell viability ([13]; 10 nM): 100%
cell viability ([13]; 100 nM): 102%
cell viability ([13]; 1000 nM): 96.1%
cell viability ([13]; 10000 nM): 94%
cell viability ([14]; 1 nM): 93.1%
cell viability ([14]; 10 nM): 102%
cell viability ([14]; 100 nM): 88.4%
cell viability ([14]; 1000 nM): 99.5%
cell viability ([14]; 10000 nM): 108%
cell viability ([15]; 1 nM): 97.4%
cell viability ([15]; 10 nM): 97.8%
cell viability ([15]; 100 nM): 100%
cell viability ([15]; 1000 nM): 99.4%
cell viability ([15]; 10000 nM): 101%
